Data reported in PubChem BioAssay (NCI).
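At the GI50, growth is halved. At the TGI there is no net growth.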

How the values were obtained:
Assay in all cases: NCI tumour cell line growth inhibition, 384-well format
[1] = test system: RXF 393 renal
[2] = test system: T-47D breast
[3] = test system: A549 NSCLC
[4] = test system: HOP-92 NSCLC
[5] = test system: SK-MEL-5 melanoma
[6] = test system: EKVX NSCLC
[7] = test system: UO-31 renal
[8] = test system: SK-OV-3 ovarian
[9] = test system: HOP-62 NSCLC
[10] = test system: OVCAR-4 ovarian
[11] = test system: MCF7 breast
[12] = test system: SW-620 colon
[13] = test system: 786-0 renal
[14] = test system: OVCAR-5 ovarian
[15] = test system: BT-549 breast
[16] = test system: IGROV1 ovarian
[17] = test system: KM12 colon
[18] = test system: U251 glioblastoma
[19] = test system: UACC-257 melanoma
[20] = test system: NCI-H522 lung
[21] = test system: SK-MEL-2 melanoma
[22] = test system: MDA-MB-231 breast
[23] = test system: MDA-MB-468 breast
[24] = test system: MDA-MB-435 melanoma
[25] = test system: CAKI-1 renal
[26] = test system: SN12C renal
[27] = test system: M14 melanoma
[28] = test system: PC-3 prostate
[29] = test system: NCI-H226 lung
[30] = test system: OVCAR-8 ovarian
[31] = test system: HL-60(TB) leukemia
[32] = test system: SNB-19 CNS
[33] = test system: HS 578T breast
[34] = test system: HT29 colon
[35] = test system: MALME-3M melanoma
[36] = test system: HCT-116 colon
[37] = test system: UACC-62 melanoma
[38] = test system: NCI-H322M lung
[39] = test system: NCI-H23 lung
[40] = test system: DU-145 prostate
[41] = test system: SR leukemia
[42] = test system: ACHN renal
[43] = test system: NCI-H460 NSCLC
[44] = test system: MOLT-4 leukemia
[45] = test system: SK-MEL-28 melanoma
[46] = test system: SF-295 CNS
[47] = test system: SF-539 CNS
[48] = test system: SNB-75 CNS
[49] = test system: HCT-15 colon
[50] = test system: SF-268 CNS
[51] = test system: COLO 205 colon
[52] = test system: TK-10 renal
[53] = test system: K-562 leukemia
[54] = test system: OVCAR-3 ovarian
[55] = test system: A498 renal

Work on `CC(C)(C)C[C@H]1NC(C(=O)NCC[C@H](O)CO)[C@H](c2cccc(Cl)c2)[C@@]12C(=O)Nc1cc(Cl)c(F)cc12` (stereo not given in full) yielded a GI50 [1] of 2.38 µM, a TGI [1] of 15.3 µM and a GI50 [2] of 11.7 µM. The TGI [2] was 24 µM, the GI50 [3] was 2.94 µM and the TGI [3] was 14.1 µM. It also gave a GI50 [4] of 14.7 µM, a TGI [4] of 27.8 µM and a GI50 [5] of 2.79 µM. For the same molecule, the TGI [5] was 16.4 µM, the GI50 [6] was 12.5 µM and the TGI [6] was 25 µM. The GI50 [7] was 4.29 µM, the TGI [7] was 15.9 µM and the GI50 [8] was 13.9 µM. The TGI [8] was 27.1 µM, the GI50 [9] was 16.5 µM and the TGI [9] was 30.2 µM. For the same molecule, the GI50 [10] was 11.9 µM, the TGI [10] was 24.3 µM and the GI50 [11] was 0.243 µM. It also gave a TGI [11] of 1.77 µM, a GI50 [12] of 16.8 µM and a TGI [12] of 30.6 µM. For the same molecule, the GI50 [13] was 15.6 µM, the TGI [13] was 29 µM and the GI50 [14] was 15.9 µM. For the same molecule, the TGI [14] was 29.5 µM, the GI50 [15] was 15.1 µM and the TGI [15] was 28.5 µM. It also gave a GI50 [16] of 6.37 µM, a TGI [16] of 20.2 µM and a GI50 [17] of 1.6 µM. The TGI [17] was 12.8 µM, the GI50 [18] was 14.4 µM and the TGI [18] was 27.6 µM. The GI50 [19] was 1.76 µM, the TGI [19] was 5.36 µM and the GI50 [20] was 12.8 µM. For the same molecule, the TGI [20] was 25.5 µM, the GI50 [21] was 14.6 µM and the TGI [21] was 27.7 µM. The GI50 [22] was 16.2 µM, the TGI [22] was 29.8 µM and the GI50 [23] was 3.31 µM. The TGI [23] was 16.1 µM, the GI50 [24] was 14.6 µM and the TGI [24] was 27.8 µM. For the same molecule, the GI50 [25] was 0.605 µM, the TGI [25] was 11.7 µM and the GI50 [26] was 17.1 µM. For the same molecule, the TGI [26] was 30.9 µM, the GI50 [27] was 10.3 µM and the TGI [27] was 22.1 µM. The GI50 [28] was 13.1 µM, the TGI [28] was 25.9 µM and the GI50 [29] was 0.515 µM. For the same molecule, the TGI [29] was 2.17 µM, the GI50 [30] was 16.4 µM and the TGI [30] was 30.1 µM. It also gave a GI50 [31] of 4.2 µM, a TGI [31] of 16.5 µM and a GI50 [32] of 15.8 µM. For the same molecule, the TGI [32] was 29.4 µM, the GI50 [33] was 6.45 µM and the TGI [33] was 20.4 µM. The GI50 [34] was 15.8 µM, the TGI [34] was 29.4 µM and the GI50 [35] was 0.582 µM. For the same molecule, the TGI [35] was 14.7 µM, the GI50 [36] was 0.962 µM and the TGI [36] was 13.8 µM. For the same molecule, the GI50 [37] was 0.591 µM, the TGI [37] was 11.1 µM and the GI50 [38] was 17.5 µM. The TGI [38] was 31.4 µM, the GI50 [39] was 15 µM and the TGI [39] was 28.3 µM. The GI50 [40] was 15.8 µM, the TGI [40] was 29.4 µM and the GI50 [41] was 0.2 µM. For the same molecule, the TGI [41] was 0.394 µM, the GI50 [42] was 1.36 µM and the TGI [42] was 10.6 µM. For the same molecule, the GI50 [43] was 14.6 µM, the TGI [43] was 27.9 µM and the GI50 [44] was 0.181 µM. For the same molecule, the TGI [44] was 0.341 µM, the GI50 [45] was 16.7 µM and the TGI [45] was 30.4 µM. It also gave a GI50 [46] of 12.9 µM, a TGI [46] of 25.6 µM and a GI50 [47] of 13.4 µM. For the same molecule, the TGI [47] was 26.3 µM, the GI50 [48] was 10.9 µM and the TGI [48] was 22.9 µM. The GI50 [49] was 17.4 µM, the TGI [49] was 31.5 µM and the GI50 [50] was 16 µM. The TGI [50] was 29.6 µM, the GI50 [51] was 15.8 µM and the TGI [51] was 29.3 µM. It also gave a GI50 [52] of 14.6 µM, a TGI [52] of 28.2 µM and a GI50 [53] of 13.7 µM. The TGI [53] was 27 µM, the GI50 [54] was 13.7 µM and the TGI [54] was 26.7 µM. For the same molecule, the GI50 [55] was 1.12 µM and the TGI [55] was 11.7 µM.
